Earlier results in PMC4905688 (Biomaterials, 2016).

Test system: ischemic limbs

## VEGF
  Effect of local delivery on ischemia / vessels: modest reversal of ischemia or the development of leaky blood vessels
